In patent publication US20090023704A1, “Novel Compounds 737” (ASTRAZENECA AB, priority 2007, published 2009) one finds EC50 data, which are given here for 27 compounds.

T1 sequence (Q9UBS5 15-961 limits assumed): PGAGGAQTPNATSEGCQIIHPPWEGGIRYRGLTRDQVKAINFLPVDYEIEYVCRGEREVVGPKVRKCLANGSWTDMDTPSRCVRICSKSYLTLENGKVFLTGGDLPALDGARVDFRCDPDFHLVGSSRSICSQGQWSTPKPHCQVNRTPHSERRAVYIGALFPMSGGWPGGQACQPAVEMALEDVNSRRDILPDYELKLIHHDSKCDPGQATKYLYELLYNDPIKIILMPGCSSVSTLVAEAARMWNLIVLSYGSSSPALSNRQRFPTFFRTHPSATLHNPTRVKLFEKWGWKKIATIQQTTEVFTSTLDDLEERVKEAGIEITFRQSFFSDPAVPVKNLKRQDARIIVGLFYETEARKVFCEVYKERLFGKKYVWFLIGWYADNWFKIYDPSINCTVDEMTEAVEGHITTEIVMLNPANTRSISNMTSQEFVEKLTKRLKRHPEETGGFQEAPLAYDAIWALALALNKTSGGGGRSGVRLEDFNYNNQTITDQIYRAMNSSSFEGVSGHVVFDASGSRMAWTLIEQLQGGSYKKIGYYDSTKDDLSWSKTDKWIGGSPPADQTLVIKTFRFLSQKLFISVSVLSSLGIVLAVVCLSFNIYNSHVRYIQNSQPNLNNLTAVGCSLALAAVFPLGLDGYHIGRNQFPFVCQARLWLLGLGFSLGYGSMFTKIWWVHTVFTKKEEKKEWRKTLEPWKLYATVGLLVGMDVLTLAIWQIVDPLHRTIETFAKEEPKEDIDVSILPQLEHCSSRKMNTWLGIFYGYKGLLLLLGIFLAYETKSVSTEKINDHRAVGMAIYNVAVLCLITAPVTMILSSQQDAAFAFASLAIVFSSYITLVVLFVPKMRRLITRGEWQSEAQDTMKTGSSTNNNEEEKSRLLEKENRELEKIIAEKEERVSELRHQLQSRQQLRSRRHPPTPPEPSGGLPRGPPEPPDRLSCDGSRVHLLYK
T1 sequence (O75899 42-941): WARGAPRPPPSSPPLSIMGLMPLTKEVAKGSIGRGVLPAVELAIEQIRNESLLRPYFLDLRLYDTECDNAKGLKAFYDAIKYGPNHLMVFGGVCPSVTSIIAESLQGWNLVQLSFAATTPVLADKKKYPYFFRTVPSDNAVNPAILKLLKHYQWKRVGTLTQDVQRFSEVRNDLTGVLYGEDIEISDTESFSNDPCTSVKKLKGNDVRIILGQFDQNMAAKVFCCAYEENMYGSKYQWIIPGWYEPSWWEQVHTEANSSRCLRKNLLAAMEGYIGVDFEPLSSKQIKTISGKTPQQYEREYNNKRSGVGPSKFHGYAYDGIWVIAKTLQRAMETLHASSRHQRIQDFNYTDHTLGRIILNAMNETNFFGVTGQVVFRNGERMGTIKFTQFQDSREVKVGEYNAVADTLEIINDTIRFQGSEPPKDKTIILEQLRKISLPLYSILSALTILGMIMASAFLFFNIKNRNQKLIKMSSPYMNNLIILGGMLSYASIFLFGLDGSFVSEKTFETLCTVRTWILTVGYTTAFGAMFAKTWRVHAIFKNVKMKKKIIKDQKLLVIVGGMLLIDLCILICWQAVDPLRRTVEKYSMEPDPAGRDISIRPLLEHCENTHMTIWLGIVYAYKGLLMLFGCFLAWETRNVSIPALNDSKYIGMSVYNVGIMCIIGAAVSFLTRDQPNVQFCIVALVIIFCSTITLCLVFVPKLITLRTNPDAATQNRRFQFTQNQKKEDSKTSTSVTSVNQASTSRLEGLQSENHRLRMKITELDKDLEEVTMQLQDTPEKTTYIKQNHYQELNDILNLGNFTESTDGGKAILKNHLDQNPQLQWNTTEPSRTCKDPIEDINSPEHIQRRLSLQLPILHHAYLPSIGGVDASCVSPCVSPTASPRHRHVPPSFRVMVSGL

The assay addresses T1, GABAB receptor (GABABR1a/GABABR2 heterodimer) (Homo sapiens, UniProt O75899+Q9UBS5).
T1 construct: expressed in transfected cells
Put plainly: [35S]-GTPγS binding assay, potency of PAM (GABA dose-response curves with and without test compound). Format: biochemical. The conditions noted are these: potency of the positive allosteric modulator; GABA dose-response in presence of test compound. An excerpt:
GABABR1a and GABABR2 were cloned from human brain cDNA and subcloned into pCI-Neo (Promega) and pALTER-1 (Promega), respectively. A GABABR1a-Gαqi5 fusion protein expression vector was constructed using the pCI-Neo-GABABR1a cDNA plasmid and pLEC1-Gαqi5 (Molecular Devices, CA). In order to make the Gαqi5 pertussis toxin insensitive, Cys356 was mutated to Gly using standard PCR methodology with the primers 5′-[…]-3′ (forward) and 5′-GCGGCCG […]-3′ (reverse). The Gαqi5mut cDNA was ligated into the BamHI and NotI sites of pcDNA3.0 (Invitrogen). The GABAB R1a coding sequence was amplified by PCR from pCI-Neo-GABABR1a using the primers, 5′-[…]-3′ (forward) and 5′-[…]-3′ (reverse) and subcloned into the BamHI site of pcDNA3.0-Gαqi5mut.
For generation of a cell line expressing the GABABR1a/GABABR2 heterodimer, GABABR1a plasmid DNA (4 μg) GABABR2 plasmid DNA (4 μg) and lipofectamine (24 μl) were mixed in 5 ml OptiMEM and incubated for 45 minutes at room temperature. The cells were exposed to the transfection medium for 5 hours, which then was replaced with culture medium. The cells were cultured for an additional 10 days before selection agents (300 μg/ml hygromycin and 400 μg/ml geneticin) were added. Twenty-four days after transfection, single cell sorting into 96-well plates by flow cytometry was performed using a FACS Vantage SE (Becton Dickinson, Palo Alto, Calif.). After expansion, the GABAB receptor functional response was tested using the FLIPR assay described below. The clone with the highest functional response was collected, expanded and then subcloned by single cell sorting. The clonal cell line with the highest peak response in the FLIPR was used in the present study.
For generation of a stable cell line expressing GABABR1a-Gαqi5 fusion protein and GABABR2, GABABR1a-Gαqi5mut plasmid DNA (8 μg) GABABR2 plasmid DNA (8 μg) and lipofectamine (24 μl) were mixed in 5 ml OptiMEM and incubated for 45 minutes at room temperature. The cells were exposed to the transfection medium for 5 hours, which then was replaced with culture medium. After forty-eight hours, the cells were detached and seeded in 6 well plates (2000 cells/well) and grown in culture medium supplemented with geneticin (400 μg/ml) and zeocin (250 μg/ml). After 4 days, cells from single colonies were collected and transferred to a 24-well plate. After 10 days, the cell clones were seeded in T-25 flasks and grown for another 16 days before they were tested for GABAB receptor mediated functional response. […] The clonal cell line that gave the highest peak response in the FLIPR was used in the present study.
[^35S]-GTPγS binding assays were performed at 30° C. for 45 min in membrane buffer (100 mM NaCl, 5 mM MgCl2, 1 mM EDTA, 50 mM HEPES, pH 7.4) containing 0.025 μg/μl of membrane protein (prepared from the cell lines described above) with 0.01% bovine serum albumin (fatty acid free), 10 μM GDP, 10 μM DTT and 0.53 nM [^35S]-GTPγS (Amersham-Pharmacia Biotech) in a final volume of 200 μl. Non-specific binding was determined in the presence of 20 μM GTPγS. The reaction was started by the addition of GABA at concentration between 1 mM and 0.1 nM in the presence or absence of the required concentration of PAM. The reaction was terminated by addition of ice-cold wash buffer (50 mM Tris-HCl, 5 mM MgCl2, 50 mM NaCl, pH 7.4) followed by rapid filtration under vacuum through Printed Filtermat A glass fiber filters (Wallac) (0.05% PEI treated) using a Micro 96 Harvester (Skatron Instruments). The filters were dried for 30 min at 50° C., then a paraffin scintillant pad was melted onto the filters and the bound radioactivity was determined using a 1450 Microbeta Trilux (Wallac) scintillation counter.
GABA dose-response curves in the presence and absence of test compounds were constructed using the 4-parameter logistic equation, y=ymax+((ymin−ymax)/1+(x/C)^D), where C=EC50 and D=slope factor.
On the technique in general: GTPγS is a poorly hydrolysed GTP analogue; its binding reports G protein activation.
For orientation: EC50 means the concentration at which the effect is half-maximal. As for `CCCn1c(=O)n(Cc2ccc3ccccc3c2)c(=O)c2c1nc(CC)n2C` [Example 58, 8-Ethyl-7-methyl-1-(2-naphthylmethyl)-3-propyl-3,7-dihydro-1H-purine-2,6-dione], the EC50 turned out to be 2.7 µM. In the case of `CCc1nc2c(c(=O)n(Cc3ccc(Cl)c(Cl)c3)c(=O)n2CCCCC2CCCCC2)n1C` [Example 44, 3-(4-Cyclohexylbutyl)-1-(3,4-dichlorobenzyl)-8-ethyl-7-methyl-3,7-dihydro-1H-purine-2,6-dione], the EC50 stood at 12.5 µM. Then `CCCn1c(=O)n(Cc2ccc(Cl)cc2)c(=O)c2c1nc(N1CCCCC1)n2C` [Example 85, 1-(4-chlorobenzyl)-7-methyl-8-piperidin-1-yl-3-propyl-3,7-dihydro-1H-purine-2,6-dione], with 1.9 µM. To `CCc1nc2c(c(=O)n(Cc3ccc(Cl)cc3)c(=O)n2CC(C)C)n1C` [Example 8, 1-(4-Chlorobenzyl)-8-ethyl-3-isobutyl-7-methyl-3,7-dihydro-1H-purine-2,6-dione] belongs 2.7 µM; to `C=CCn1c(=O)n(Cc2ccc(Cl)cc2)c(=O)c2c1nc(CC)n2C` [Example 12, 3-Allyl-1-(4-chlorobenzyl)-8-ethyl-7-methyl-3,7-dihydro-1H-purine-2,6-dione], 6 µM. Then `CCc1nc2c(c(=O)n(Cc3ccc(Cl)cc3)c(=O)n2CCCN2CCCC2)n1C` [Example 46, 1-(4-chlorobenzyl)-8-ethyl-7-methyl-3-(3-pyrrolidin-1-ylpropyl)-3,7-dihydro-1H-purine-2,6-dione], with 16.9 µM; and `CCc1nc2c(c(=O)n(Cc3ccc(Cl)cc3)c(=O)n2Cc2ccc(-n3cccn3)cc2)n1C` [Example 26, 1-(4-chlorobenzyl)-8-ethyl-7-methyl-3-[4-(1H-pyrazol-1-yl)benzyl]-3,7-dihydro-1H-purine-2,6-dione], with 3.5 µM. With `CCCn1c(=O)n(Cc2ccc(Cl)cc2)c(=O)c2c1nc(CC)n2CC` [Example 72, 1-(4-Chlorobenzyl)-7,8-diethyl-3-propyl-3,7-dihydro-H-purine-2,6-dione], the EC50 came out at 8.93 µM.

Regarding `CCc1nc2c(c(=O)n(Cc3ccc(Cl)cc3)c(=O)n2CCN(CC)CC)n1C` [Example 27, 1-(4-chlorobenzyl)-3-[2-(diethylamino)ethyl]-8-ethyl-7-methyl-3,7-dihydro-1H-purine-2,6-dione], the EC50 is 15.6 µM.

As to `CCCn1c(=O)n(Cc2ccc(Cl)cc2)c(=O)c2c1nc(N1CCOCC1)n2C` [Example 92, 1-(4-chlorobenzyl)-7-methyl-8-morpholin-4-yl-3-propyl-3,7-dihydro-1H-purine-2,6-dione], the EC50 is 7.1 µM.

In the case of `CCc1nc2c(c(=O)n(Cc3ccc(Cl)cc3)c(=O)n2Cc2ccc(OC)cc2OC)n1C` [Example 71, 1-(4-Chlorobenzyl)-3-(2,4-dimethoxybenzyl)-8-ethyl-7-methyl-3,7-dihydro-1H-purine-2,6-dione], the EC50 worked out at 11.3 µM.

In the case of `CCc1nc2c(c(=O)n(Cc3ccc(Cl)cc3)c(=O)n2Cc2cccnc2)n1C` [Example 18, 1-(4-Chlorobenzyl)-8-ethyl-7-methyl-3-(pyridin-3-ylmethyl)-3,7-dihydro-1H-purine-2,6-dione], the EC50 stood at 3.3 µM. To `CCn1c(=O)n(Cc2ccc(Cl)cc2)c(=O)c2c1nc(OC)n2-c1ccc(F)cc1` [Example 77, 1-(4-chlorobenzyl)-3-ethyl-7-(4-fluorophenyl)-8-methoxy-3,7-dihydro-1H-purine-2,6-dione] belongs 6.64 µM; to `CCc1nc2c(c(=O)n(Cc3ccc(Cl)cc3)c(=O)n2CC(=O)c2ccccc2)n1C` [Example 28, 1-(4-chlorobenzyl)-8-ethyl-7-methyl-3-(2-oxo-2-phenylethyl)-3,7-dihydro-1H-purine-2,6-dione], 2.6 µM. `CCc1nc2c(c(=O)n(Cc3ccc(Cl)c(Cl)c3)c(=O)n2CC(=O)C(C)(C)C)n1C` [Example 40, 1-(3,4-Dichlorobenzyl)-3-(3,3-dimethyl-2-oxobutyl)-8-ethyl-7-methyl-3,7-dihydro-1H-purine-2,6-dione]: the EC50 was 0.6 µM. As to `CCc1nc2c(c(=O)n(Cc3ccc(Cl)cc3)c(=O)n2Cc2ccc(Cl)cc2)n1C` [Example 13, 1,3-Bis(4-chlorobenzyl)-8-ethyl-7-methyl-3,7-dihydro-1H-purine-2,6-dione], the EC50 was 5.2 µM.

Turning to `CCc1nc2c(c(=O)n(Cc3ccc(Cl)cc3)c(=O)n2CC(=O)c2ccncc2)n1C` [Example 7, 1-(4-Chlorobenzyl)-8-ethyl-7-methyl-3-(2-oxo-2-pyridin-4-ylethyl)-3,7-dihydro-1H-purine-2,6-dione], the EC50 was 7.9 µM. Turning to `CCCn1c(=O)n(CCc2ccc(Cl)cc2)c(=O)c2c1nc(CC)n2C` [Example 63, 1-[2-(4-Chlorophenyl)ethyl]-8-ethyl-7-methyl-3-propyl-3,7-dihydro-1H-purine-2,6-dione], the EC50 came to 13.8 µM.

Regarding `CCc1nc2c(c(=O)n(Cc3ccc(Cl)cc3)c(=O)n2CCCOc2ccc(C(F)(F)F)cc2)n1C` [Example 36, 1-(4-chlorobenzyl)-8-ethyl-7-methyl-3-{3-[4-(trifluoromethyl)phenoxy]propyl}-3,7-dihydro-1H-purine-2,6-dione], the EC50 stood at 6.6 µM. As to `CCc1nc2c(c(=O)n(Cc3ccc(Cl)cc3)c(=O)n2CCCC(F)(F)F)n1C` [Example 76], the EC50 was determined as 4.9 µM. To `CCCn1c(=O)n(Cc2ccc(Cl)cc2)c(=O)c2c1nc(C(C)O)n2C` (stereo not drawn) [Example 96, 1-(4-chlorobenzyl)-8-(1-hydroxyethyl)-7-methyl-3-propyl-3,7-dihydro-1H-purine-2,6-dione] belongs 12.2 µM. Then `CCCn1c(=O)n(Cc2ccc(Cl)cc2)c(=O)c2c1nc(N1CCC(OC)CC1)n2C` [Example 84, 1-(4-chlorobenzyl)-8-(4-methoxypiperidin-1-yl)-7-methyl-3-propyl-3,7-dihydro-1H-purine-2,6-dione], with 5.1 µM; and `CCc1nc2c(c(=O)n(Cc3ccc(Cl)cc3)c(=O)n2C[C@H]2CCC(=O)N2)n1C` [Example 6, 1-(4-Chlorobenzyl)-8-ethyl-7-methyl-3-{[(2R)-5-oxopyrrolidin-2-yl]methyl}-3,7-dihydro-1H-purine-2,6-dione], with 16.4 µM. As to `CCCn1c(=O)n(Cc2ccc(Cl)cc2)c(=O)c2c1nc(N1CCCC1)n2C` [Example 86, 1-(4-chlorobenzyl)-7-methyl-3-propyl-8-pyrrolidin-1-yl-3,7-dihydro-1H-purine-2,6-dione], the EC50 was 3.6 µM. To `CCc1nc2c(c(=O)n(Cc3ccc(Cl)cc3)c(=O)n2Cc2cc(C)on2)n1C` [Example 16, 1-(4-Chlorobenzyl)-8-ethyl-7-methyl-3-[(5-methylisoxazol-3-yl)methyl]-3,7-dihydro-1H-purine-2,6-dione] belongs 6.8 µM; to `CCCn1c(=O)n(Cc2ccc(Cl)cc2)c(=O)c2c1nc(CC)n2-c1ccc(F)cc1` [Example 74, 1-(4-Chlorobenzyl)-8-ethyl-7-(4-fluorophenyl)-3-propyl-3,7-dihydro-1H-purine-2,6-dione], 9.9 µM; to `CCCn1c(=O)n(Cc2ccc(Cl)cc2)c(=O)c2c1nc(N(C)CCOC)n2C` [Example 91, 1-(4-chlorobenzyl)-8-[(2-methoxyethyl)(methyl)amino]-7-methyl-3-propyl-3,7-dihydro-1H-purine-2,6-dione], 8.3 µM.
